Test results reported in patent publication US7226741B2, “Multimerization of HIV-1 Vif protein as a therapeutic target” (priority 2001, dated 2007).

Biological target: T1, HIV-1 Vif protein (Vif-Vif interaction) (Human immunodeficiency virus type 1 group M subtype B, UniProt P12504)
T1 construct: The vif gene also was inserted into pGEX vector for in vitro expression and isolation of GST-Vif fusion protein; The PCR-generated wild-type vif gene and its mutants were then inserted into pCITE-4a vector; made in house; host or cells: GST-Vif: E. coli BL21 (pGEX); 35S-Vif: in vitro translation from pCITE-4a (Novagen kit)
T1 sequence (P12504 whole entry, the tested form may be a part): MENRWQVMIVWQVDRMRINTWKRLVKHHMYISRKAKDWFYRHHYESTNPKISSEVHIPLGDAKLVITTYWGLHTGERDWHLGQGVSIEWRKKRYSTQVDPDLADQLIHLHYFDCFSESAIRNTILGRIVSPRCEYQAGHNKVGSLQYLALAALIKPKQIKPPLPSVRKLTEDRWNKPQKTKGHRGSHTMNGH
Type: binding
Conditions: for 35S-Vif binds with GST-Vif (%) Mean ± SD: peptide added to the Vif-Vif binding reaction, no peptide (GST pull-down) designated as 100%; for Inhibition of Vif-Vif interaction (in words): synthesized peptides added into the reaction system for Vif-Vif binding, in vitro
Experimental: The vector pGEX, with or without the vif gene, was transformed into BL21 competent cells (Novagen, Madison, Wis.). After growth at 37° C. to approximately 0.6 O.D., the expression of GST or GST-Vif proteins was induced by 0.4 mM isopropylthio-β-D-galactoside (IPTG). The bacterial cells were lyzed by adding lysing buffer (1% Triton-X-100, 0.1 mg/ml lysozyme, 2 mM EDTA, 1 mM PMSF, 2 μg/ml leupeptin, and 1 μg/ml aprotinin), followed by sonication. The sample was pelleted at 12,000 g for 10 min at 4° C., and the supernatant was applied to a glutathione-conjugated agarose bead (Sigma, St. Louis, Mo.) column. After batch binding, the matrix was washed three times, each time by the addition of 10 bed volumes of phosphorus-buffer saline (PBS). The GST or GST-Vif conjugated agarose beads were then aliquoted and stored at −20° C. Conversely, ^35S-labeled Vif or its mutant proteins were synthesized utilizing SPT3 kits (Novagen, Madison, Wis.). The protocol supplied by the manufacturer was followed. After in vitro translation, RNase A (0.2 mg/ml) was added to stop the reaction and remove tRNAs and the in vitro transcribed mRNA. The trichloroacetic acid (TCA)-insoluble radioactive amino acids were quantitated in the presence of a scintillation cocktail.
For GST pull-down assays, a GST or GST-Vif conjugated bead slurry was mixed with ^35S-labeled Vif or its mutants (50,000 cpm) in a binding buffer [150 mM NaCl, 20 mM Tris-HCl (pH 7.5), 0.1% Triton-X-100]. After binding at 4° C. for 1 hour, the mixture was centrifuged at 3,000 g for 1 min, and the beads were washed three times with binding buffer. The ^35S-labeled Vif proteins were dissociated from the beads by adding SDS-containing loading buffer and heating at 95° C. for 5 minutes. The samples were then electrophoresized in SDS-PAGE gels (15% Tris-HCl ready gel made by Bio-Rad, Hercules, Calif.). After treatment with the fixing buffer (10% acetic acid, 10% methanol) and then the Amplify (Amersham-Pharmacia, Piscataway, N.J.), the gels were dried and exposed to X-ray film or quantitatively analyzed utilizing phosphor image (Molecular Dynamics, Sunnyview, Calif.).
A Vif-Vif binding assay was similar to the GST pull-down assays, except that the GST or GST-Vif conjugated bead slurry was mixed with ^35S-labeled Vif and the test peptides or molecules in the binding buffer. The results were compared to that from the GST pull-down assay, which was designated as 100%.

Sequence	35S-Vif binds with GST-Vif (%) Mean ± SD	Inhibition of Vif-Vif interaction (in words)
PPLPSVTKLTEDRWN [Vif161-175]	70.2 ± 5.5%	able to inhibit the Vif-Vif interaction
LPLPAPSFHRTT [VMI9]	22.0 + 6.2%	significantly inhibit Vif-Vif interaction
KKIKPPLPSVTKLTE [Vif157-171]	49.2 ± 2.5%	able to inhibit the Vif-Vif interaction
ESAIRKAILGHIVSP [Vif117-131]	94.5 ± 11.2%	–
KPKKIKPPLPSV [Vif155-166]	57.1 ± 8.7%	able to inhibit the Vif-Vif interaction
SNQGGSPLPRSV [VMI7]	19.0 ± 2.2%	significantly inhibit Vif-Vif interaction
SVSVGMKPSPRP (Synthetic peptide containing PXP motif) [VMI5, 12-mer peptide containing a PXP motif]	36.3 ± 5.1%	–
